Assays:
tetrameric channel = biological target: T1, tetrameric channel (Homo sapiens, UniProt P23415); conditions: lipid bilayers; cited from earlier work
T1 construct: 9-amino acid carrier template (tethers four peptide copies)

[1] = system: C-K4 -M2GlyR-generated (SEQ ID NO: 7) ISC across MDCK monolayers; experiment: Effect of Cl- transport inhibitors on C-K4-M2GlyR-generated Isc across MDCK monolayers; type: cell-based, canine; conditions: for fraction of stimulated current remaining: four monolayers
Method: Electrical measurements. MDCK cells (2.5×10^5) were plated on permeable supports (Snapwell, 12 mm dia.; Costar Corp), coated with a mixture of types I and III collagen (ICN, Costa Mesa, Ca.). The Snapwell supports were placed in a 6 well culture plate containing DME/F12+P/S and 1% FCS (0.4 mL in the upper part and 5 mL in the lower). MDCK monolayers were allowed to reach confluency and after 5 days of growth were mounted in Using chambers designed for cell culture (Costar). The position of the monolayer and the supporting membrane separated the apical and the basolateral compartments. Both sides of the monolayers were bathed in 5 mL of a Ringer's solution containing (in mM); 147 Na^+, 119 Cl^-, 20 HCO3^-, 6 alanine, 5 K^+, 5 acetate, 5 glucose, 4 lactate, 2.5 HPO4^- 1.2 Mg^+2, 1.2 SO4^-2 1 citrate, 0.5 butyric acid and 14 raffinose. The media in each half-chamber was circulated by a bubble-lift method with a gas mixture of 95% O2 /5% CO2 and maintained at 37° C. In experiments in which we removed chloride from the Ringer's solution, the molar equivalent of cyclamate was used.
The transepithelial voltage was measured using glass capillary tubes containing a plug of 5% agar in 3 M KCl and situated near each side of the cell layer. The glass tube was filled above the agar plug with 3 M KCl and Ag/AgCl electrodes were inserted into the KCI. Current electrodes consisted of a coil of platinum wire (30 gauge) located at the ends of each half-chamber. Transepithelial potential (Vtc); the short-circuitcurrent (Isc), the current necessary to clamp the voltage to zero; and the transepithelial resistance (Ftc) were measured at five minute intervals with a dual epithelial voltage clamp apparatus (Warner Instrument, Hamden, Conn.) as previously described in detail (Mangoo-Karimet al.; 1995). The average of the last two measurements in each period were used for comparison between pairs of monolayers and among each group.
In electrophysiological studies, niflumic acid, 5-nitro-2-(3-phenylpropylamino)-benzoate (NPPB, provided by SmithKline Beecham), diphenylamine-2-carboxylate (DPC, Fluka Chemika), and glibenclamide were dissolved in 100% ethanol. The maximal final concentration of ethanol, 0.5%, was without effect on Isc.
Effect of Cl^- channel blockers. We tested a variety of Cl^- channel blockers on the Isc generated by apical application of C-K4 -M2GlyR (SEQ ID NO: 7). […]. […] A negative change indicates a reduction in the current. The sensitivity sequence of the peptide-induced current to the Cl^- channel blockers was niflumic acid≥NPPB>DPC>glibenclamide>>>DIDS.

M2GlyR-stimulated Isc = experiment: Effect of Cl- transport inhibitors on M2GlyR-stimulated Isc in MDCK monolayers; type: cell-based, canine
[2] = system: forskolin-stimulated current; conditions: apical DPC, previously published dose response; cited from earlier work
MDCK monolayers [3] = experiment: Intracellular cAMP by radioimmunoassay in MDCK monolayers; type: cell-based, canine; conditions: 10 μM forskolin, 2 hrs
Method: Cyclic adenosine monophosphate measurements. Confluent monolayers of MDCK cells were incubated in defined media (1.7 mL apical and 2.5 mL basolateral) or defined media containing either 10 μM basolateral forskolin or 500 μM apical C-K4 -[…] (SEQ ID NO: 7) for two hours. Monolayers were rinsed in Ca^+2 -, Mg^+2 -tree phosphate buffered saline (PBS), then treated with 5% trichloroacetic acid (TCA) to deactivate endogenous phosphodiesterases. […] Intracellular cAMP remained in the aqueous phase. After the water and ether phases separated, the water phase was collected. Relative levels of intracellular cAMP were determined by radioimmunoassay (Biomedical Technology Inc, Stoughton, Mass.) using methods previously described (Krishna and Terranova; 1987).

MDCK monolayers [4] = experiment: Fluid secretion / fluid transport by MDCK monolayers (24 hr collection); conditions: 500 μM apical peptide or 10 μM basolateral forskolin, n = 12 (Table 6)
[5] = 100 μM basolateral bumetanide after 100 μM apical SEQ ID NO: 7, n = 8
[6] = 100 μM basolateral bumetanide after 100 μM apical SEQ ID NO: 7, n = 8, listed as bumetanide
[7] = 100 μM inhibitor apical for 20 minutes after 100 μM C-K4-M2GlyR, negative = inhibition

T1 sequence (P23415 278-300 limits assumed): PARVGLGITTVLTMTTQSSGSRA

In the case of `O=C(O)c1c2ccccc2cc2ccccc12` [9-AC, 9-anthracene carboxylic acid], the “block of the tetrameric channel” value (tetrameric channel) is listed as “blocked”.

For `CCCCNc1cc(C(=O)O)cc(S(N)(=O)=O)c1Oc1ccccc1` [Bumetanide, bumetanide], the ISC after bumetanide [1, 5] was 1.4 ± 0.4 μA/cm^2, the Rtc after bumetanide [1, 5] was 2145 ± 474 Ohms.cm^2 and the Vtc after bumetanide [1, 5] was -2.8±0.6 mV. The ISC after bumetanide [1, 6] was 1.4 μA/cm^2, the Rtc after bumetanide [1, 6] was “not significant” and the “inhibition of the peptide-generated Isc” value ([1]; 100 μM basolateral bumetanide, n = 8) was 97%. The “effect on the peptide-generated current” value ([1]; 100 μM basolateral bumetanide, typical experiment FIG. 6) was “blocked the peptide-generated current” and the “Isc after subsequent addition of bumetanide” value (M2GlyR-stimulated Isc; 100 μM basolateral bumetanide after M2GlyR, five experiments) was 1.3±0.3 μA/cm^2.

In the case of `O=C(O)c1ccccc1Nc1ccccc1` [DPC, diphenylamine-2-carboxylate], the “fraction of stimulated current remaining” value ([1]; 100 μM apical DPC) is reported as 68±2%, the “100 μM inhibitor (percent change) in ISC” value [1, 7] is reported as -38.0 ± 0.8% and the “fraction of stimulated current remaining” value ([1]; 1 mM apical DPC) is reported as 41±6%. The “fraction of stimulated current remaining” value ([1]; 3 mM apical DPC) was 26±5%, the “DPC concentration sufficient to return Isc to the control level” value (M2GlyR-stimulated Isc; apical DPC after M2GlyR, four experiments) was < 1 mM and the “dose of DPC required to significantly inhibit the forskolin-stimulated current” value [2] was 3 mM.

For `COc1ccc(Cl)cc1C(=O)NCCc1ccc(S(=O)(=O)NC(=O)NC2CCCCC2)cc1` [Glibenclamide, glibenclamide], the percent change in Isc at 100 µM ([1]; Canis lupus familiaris, MDCK, 20 min, 100 μM inhibitor apical for 20 minutes after 100 μM C-K4-M2GlyR, negative = inhibition) was -18 ± 3.1%.

In the case of `O=C(O)c1cc([N+](=O)[O-])ccc1NCCCc1ccccc1` [NPPB, 5-nitro-2-(3-phenylpropylamino)-benzoate], the “100 μM inhibitor (percent change) in ISC” value [1, 7] is reported as -55.2 ± 4.5%.

In the case of `O=C(O)c1cccnc1Nc1cccc(C(F)(F)F)c1` [Niflumic acid, niflumic acid], the inhibition at 100 µM ([1]; Canis lupus familiaris, MDCK, 20 min, heading: 100 inhibitor in ISC, 100 μM inhibitor apical for 20 minutes after 100 μM C-K4-M2GlyR, negative = inhibition, read-out: 100 μM inhibitor (percent change) in ISC) is given as 57.1 ± 3.8% and the “block of the tetrameric channel” value (tetrameric channel) is given as “blocked”.

For `Cc1cccc(C)c1NC(=O)C[N+](C)(C)C` [QX-222], the “block of the tetrameric channel” value (tetrameric channel) is given as “not blocked”.

In the case of `O=C1C[C@@H]2OCC=C3CN4CC[C@]56c7ccccc7N1[C@H]5[C@H]2[C@H]3C[C@H]46` [Strychnine], the “block of the tetrameric channel” value (tetrameric channel) is listed as “does not block”.

For `C=C[C@@]1(C)CC(=O)[C@]2(O)[C@@]3(C)[C@@H](O)CCC(C)(C)[C@@H]3[C@H](O)[C@H](OC(C)=O)[C@@]2(C)O1` [forskolin], the “increase of cAMP levels above the control” value (MDCK monolayers [3]) was 266% and the “fluid transport by MDCK monolayers” value (MDCK monolayers [4]) was 0.47 ± 0.05 μL/hr/cm^2.

— US6077826A, “Synthetic macromolecular channel assembly for transport of chloride ions through epithelium useful in treating cystic fibrosis” (Kansas State University Research Foundation, priority 1998, dated 2000)
